Laboratory results published in patent US20080096967A1, “Formulations for Injection of Catecholic Butanes, Including Ndga Compounds, Into Animals” (priority 2005, published 2008).

Tests used:
[1] = Solubility of M4N in water-insoluble lipids (visual inspection); type: physicochemical; conditions: for solutions stable: corn oil; for stable at room temperature: sesame oil
[2] = test system: C-33A, an HPV-negative human cervical cancer cell line; experiment: Cell proliferation and cell death, trypan blue exclusion, C-33A cells; type: cell-based; conditions: for Proliferation Rate: treated/untreated cells
Description: M4N in 10% (w/v) HP-β-CD and 25% (v/v) PEG 300 (hereafter, the “CPE formulation”), M4N in 30% (w/v) HP-β-CD and 25% (v/v) PEG 300 (hereafter, the “CPE 25/30 formulation”) and M4N in 27% (w/v) HP-β-CD and 33% (v/v) PEG 300 (hereafter, the “CPE 33/27 formulation”) was tested for their effects on cell death and proliferation on two different tumor cell lines: HeLa, an HPV-18 positive human cervical cancer cell line, and C-33A, an HPV-negative human cervical cancer cell line M4N in DMSO was also tested in parallel. Both tumor cell lines were treated with increasing amounts of M4N: 0 μM, 20 μM, 40 μM, 60 μM and 80 μM, for 72 hr with the DMSO or the CPE formulation. Each formulation was added to total 1% of the growth media (Minimal Essential Medium with L-glutamine supplemented with 10% fetal bovine serum, 1 mM sodium pyruvate, 1× non-essential amino acid solution, and 1,000 IU/mL penicillin/1,000 μg/mL streptomycin solution). Control cells were grown under the same conditions and were left untreated. After 72 hr of treatment or no treatment, the total number of cells and the number of live cells in each sample were counted, using the trypan blue exclusion method. The cell proliferation rate and the percentage of dead cells in each sample were analyzed. Results of this experiment are shown in FIG. 1, FIG. 2, and Tables 6 through 12.
FIG. 1 is a graphical representation of the ratio of the number of treated cells/number of untreated cells plotted against increasing concentrations of M4N in either the DMSO formulation or the CPE formulation for treatment of the C-33A cells and HeLa cells. FIG. 2 is a graphical representation of the percentage of dead cells plotted against increasing concentrations of M4N and in either DMSO formulation or the CPE formulation for treatment of the two cancer cell lines, C-33A and HeLa cells in culture.

[3] = M4N 20 μM in CPE formulation, 72 hr
[4] = M4N 60 μM in CPE formulation, 72 hr
[5] = M4N 80 μM in CPE formulation, 72 hr

## COc1ccc(C[C@@H](C)[C@@H](C)Cc2ccc(OC)c(OC)c2)cc1OC [Formulation M4N, meso-1,4-bis(3,4-dimethoxyphenyl)-2,3-dimethylbutane]
[1]; 100% Olive Oil, M4N 30 mg/mL, 60° C.
  Dissolution After Heating: Y at 60 °C
[1]; 100% Sesame Oil, M4N 10 mg/mL
  Stability Time at Room Temperature: >3 days
[1]; 100% Sesame Oil, M4N 20 mg/mL
  Stability Time at Room Temperature: >3 days
[1]; 100% Sesame Oil, M4N 20 mg/mL, 60° C.
  Dissolution After Heating: Y at 60 °C
[1]; 100% Sesame Oil, M4N 30 mg/mL
  Stability Time at Room Temperature: <3 days
[1]; 100% Sesame Oil, M4N 30 mg/mL, 60° C.
  Dissolution After Heating: Y at 60 °C
[1]; 100% Sesame Oil, M4N 50 mg/mL
  Stability Time at Room Temperature: <1 days
[1]; 100% Sesame Oil, M4N 50 mg/mL, 60° C.
  Dissolution After Heating: Y at 60 °C
[1]; 100% Soybean Oil, M4N 10 mg/mL
  Stability Time at Room Temperature: >7 days
[1]; 100% Soybean Oil, M4N 10 mg/mL, 60° C.
  Dissolution After Heating: Y at 60 °C
[1]; 100% Soybean Oil, M4N 30 mg/mL, 60° C.
  Dissolution After Heating: Y at 60 °C
[1]; 100% Soybean Oil, M4N 50 mg/mL, 60° C.
  Dissolution After Heating: Y at 60 °C
[1]; Peppermint Oil, M4N 1 mg/mL
  Stability Time at Room Temperature: >3 days
[1]; Peppermint Oil, M4N 10 mg/mL
  Stability Time at Room Temperature: >3 days
[1]; Peppermint Oil, M4N 20 mg/mL
  Stability Time at Room Temperature: >3 days
[1]; Peppermint Oil, M4N 40 mg/mL
  Stability Time at Room Temperature: >3 days
[1]; Peppermint Oil, M4N 40 mg/mL, 40° C.
  Dissolution After Heating: Y at 40 °C
[1]; Peppermint Oil, M4N 60 mg/mL
  Stability Time at Room Temperature: <3 days
[1]; Peppermint Oil, M4N 60 mg/mL, 40° C.
  Dissolution After Heating: Y at 40 °C
[1]; Peppermint Oil, M4N 100 mg/mL
  Stability Time at Room Temperature: <1 days
[1]; Peppermint Oil, M4N 100 mg/mL, 40° C.
  Dissolution After Heating: Y at 40 °C
[1]; Peppermint Oil, M4N 125 mg/mL
  Stability Time at Room Temperature: <1 days
[1]; Peppermint Oil, M4N 125 mg/mL, 40° C.
  Dissolution After Heating: Y at 40 °C
[1]; Sesame Oil, Tween ® 20 and Glycerol: 10% Oil emulsion in 90% saline, M4N 2.4 mg/mL
  Stability Time at Room Temperature: <1 days
[1]; M4N 60 mg/mL
  solutions stable: less than 1 day
[1]; M4N 1 and 10 mg/mL
  solutions stable: greater than 3 days
[1]; M4N 20, 40 and 50 mg/mL
  solutions stable: less than 3 days
[1]; olive oil, M4N 30 mg/mL, soluble at 60° C.
  solution after cooling: did not remain in solution after cooling
[1]; M4N 10 mg/mL and 20 mg/mL
  stable at room temperature: more than 3 days
[1]; M4N 30 mg/mL
  stable at room temperature: less than 3 days
[2]; 80 μM or […] M4N in CPE formulation
  cell death, share of the cell population: about 20%
[2]; 80 μM or […] M4N in DMSO formulation
  cell death, share of the cell population: about 40%
[2]; CPE formulation, 72 hr
  M4N sufficient to cause about a 50% inhibition in cell proliferation: ~7.2 µg/mL
[2]; [3]
  % Dead Cells: 7.0%
  % Viability: 93.0%
  Proliferation Rate: 0.43
[2]; M4N 20 μM in DMSO, 72 hr
  % Dead Cells: 17.4%
  % Viability: 82.6%
  Proliferation Rate: 0.20
[2]; M4N 40 μM in CPE formulation, 72 hr
  Proliferation Rate: 0.43
[2]; M4N 40 μM in DMSO, 72 hr
  % Dead Cells: 33.0%
  % Viability: 67.0%
  Proliferation Rate: 0.15
[2]; [4]
  % Dead Cells: 10.6%
  % Viability: 89.4%
  Proliferation Rate: 0.22
[2]; M4N 60 μM in DMSO, 72 hr
  % Dead Cells: 39.6%
  % Viability: 60.4%
  Proliferation Rate: 0.14
[2]; [5]
  % Dead Cells: 22.5%
  % Viability: 77.5%
  Proliferation Rate: 0.15
[2]; M4N 80 μM in DMSO, 72 hr
  % Dead Cells: 43.3%
  % Viability: 56.7%
  Proliferation Rate: 0.11
[2]; M4N in DMSO or CPE formulation vs non-M4N-treated controls in the same formulation
  Cell proliferation rate: reduced
